From patent US5866588A, “Imidazopyridine derivatives” (British Biotech Pharmaceuticals Ltd., priority 1995, dated 1999) come the findings set out here.

Experiment [1] deals with T1, histamine-1 receptors on Hela-S3 cells (Homo sapiens, UniProt P35367).
T1 construct: histamine-1 receptors on Hela-S3 cells (American Type Culture Collection); host or cells: HeLa-S3 cells (intact cell suspension)
Put plainly: Inhibition of [^3 H]-Pyrilamine Binding to Histamine-1 Receptors on Hela-S3 Cells. Conditions: 0.5 h; 1 μM test compound; [^3 H]-pyrilamine remaining specifically bound; 37° C., 30 minutes; read-out: % Specific Binding at 1 μM. As for the experimental part:
Inhibition of [^3 H]-Pyrilamine Binding to Histamine-1 Receptors on Hela-S3 Cells
The inhibition of [^3 H]-pyrilamine binding to histamine-1 receptors on Hela-S3 cells (American Type Culture Collection) was determined by isotopic labelling and filtration techniques. A suspension of the cells in buffer (25 ml, 0.5% Bovine Serum Albumin, 0.1% sodium azide, phosphate buffered saline (PBS)) was centrifuged at 1000 rpm for 5 minutes in a JOUAN CR 422 centrifuge, collected, resuspended in buffer (25 ml) and spun again. The cells were counted using a haemocytometer and resuspended in buffer to provide a final concentration of 4.5×10^6 cells ml^-1. A portion of the Hela-S3 cell suspension (1 ml) was added to each assay tube containing 25 μl of vehicle (50% DMSO/buffer) or 25 μl of test compound solution (dissolved in DMSO and diluted with sufficient PBS to give a final test concentration of 1 μM) and 25 μl of [^3 H]-pyrilamine (supplied by Amersham International and diluted with PBS to 3 nM). The tubes were mixed, incubated at 37° C. for 30 minutes and then spun at 4° C. at 2000 rpm for 2 minutes. The supernatant was removed and the cells resuspended in buffer (repeated ×2). The cells were suspended in 300 μl of a 2:1 solution of 1M sodium hydroxide and 1% sodium dodecyl sulphate. The tubes were left ovemight before the contents were tranferred to a scintillation vial, treated with 10 ml, OPTIPHASE MP scintillation fluid (OPTIPHASE MP is a trade mark) and the radioactivity counted in a scintillation counter. Non-displacable binding (NDB) was determined using Astemizole (5×10^-5 M) in place of test compounds. Defining the counts for total binding from the vehicle control sample as "TB" and the counts for total binding with antogonist as "TBA" the percentage specific binding (% SB) can be determined from the following equation.

Experiment [2] relates to PAF-Induced Platelet Aggregation. As to the kind of experiment: Inhibition of PAF-Induced Platelet Aggregation. Type of experiment: cell-based, rabbit (New Zealand White). Conditions: Oryctolagus cuniculus; rabbit platelet-rich plasma, PAF 100 ngml^-1. As for the experimental part: Inhibition of PAF-Induced Platelet Aggregation
Male New Zealand White rabbits (3.0-3.5 kg) were anaesthetised by intravenous administration of sodium pentobarbitone, 18 mg.ml^-1, via a marginal ear vein. The trachea was exposed and connected to a respiratory pump (Harvard UK) to provide artificial ventilation. A carotid artery was exposed and cannulated and the animal was exsanguinated. Whole blood was collected in a syringe containing tri-sodium citrate (3.8% w/v) to a ratio of 1 part citrate:9 parts blood.
Collected blood was centrifuged at 180×g for 15 minutes at room temperature (21° C.) to prepare platelet-rich plasma (PRP). The remaining blood was then centrifuged at 1800×g for 10 minutes at room temperature to obtain platelet poor plasma (PPP).
Platelet count of the PRP was measured using a Technicon H1 blood cell differential analyser (Bayer Diagnostics UK) and adjusted with PPP to obtain a final platelet count of 500,000 platelets per μl of plasma, this being the normal physiological platelet count for rabbits. Corrected PRP was left to equilibrate at room temperature for 30 minutes before use.
Aggregation studies were carried out using a 4-channel aggregometer (PAP-4C, BioData USA) as follows: 400 μl aliquots of PRP were placed in siliconised cuvettes and incubated to 37° C. for 1 to 2 minutes in the heating block of the aggregometer. Baseline (100% aggregation) was set up using PPP (500 μl in a siliconised cuvette). The PRP was placed into a measuring well of the aggregometer, and a stirrer bar was added. The sample was stirred at 1000 rpm. The machine was activated to set the 0% aggregation level. Test compound or vehicle (50 μl) was added to the PRP, where any effects on the baseline was noted. PAF (100 ngml^-1 as 50 μl aliqout) was added to the PRP 3 minutes after test compound or vehicle. Aggregation was measured for a further 4 minutes after PAF addition and the maximum aggregation over the 4 minutes was recorded.
The investigation of different concentrations of test compound was performed in triplicate. Data were expressed as […] of the sample and test compound data were compared to vehicle data to obtain % inhibition of the PAF-induced aggregation from which IC50 values could be determined.
PAF was made up in sterile saline (NaCl 0.9% w/v) containing BSA (0.25% w/v) from an initial stock solution (10 mgml^-1 in EtOH). Test compounds were made up as 1×10^-3 M stock solutions in sterile saline containing molar equivalents of 1N HCl (v/v) or in DMSO.
In the results which follow, a comparison compound A was included. Compound A was prepared as described in EP-A-260613 (G. D. Searle), but is not part of the present invention. As appears from the results of the comparison, compounds of this invention, all of which incorporate a fragment capable of H1 antagonist activity, are observed to show improved PAF antagonist activity over compound A.

For experiment [3], the system named is Histamine Induced Bronchoconstriction. Put plainly: Histamine Induced Bronchoconstriction in the Anaesthetised Guinea Pig. The format is in vivo, guinea pig (Dunkin-Hartley). Conditions: p.o.; for ED50: Cavia porcellus, po, 1 h, histamine infusion 10 μgkg^-1 min^-1 one hour after dosing. The source says:
Histamine Induced Bronchoconstriction in the Anaesthetised Guinea Pig
(§1) Following oral administration of test compound or vehicle by oral gavage, male Dunkin-Hartley guinea pigs (350-400 g) were anaesthetised by intraperitoneal injection of 60 mgkg^-1 sodium pentobarbitone (Sagatal, May & Baker UK). Through a midline incision of the neck, the trachea was cannulated and connected to a small animal respirator (Harvard, UK). Animals were artificially ventilated at a rate of 30 breaths per minute with a tidal volume of 8-10 ml to give a resting tracheal inflation pressure of 15 mmHg as measured by a physiological pressure transducer (type P23XL, Spectramed USA) connected to a side arm of the respiratory circuit.
A jugular vein was cannulated for the administration of propranolol and for the infusion of histamine. A carotid artery was cannulated for the measurement of arterial blood pressure via a physiological pressure transducer (type P23XL, Spectramed USA). Blood pressure and tracheal inflation pressure were recorded on a thermal array chart recorder (type TA4000, Gould Electronics UK).
Following a suitable equilibration period, propranolol (1 mgkg^-1 i.v. & 3 mgkg^-1 s.c. Sigma Chemical Co. UK) was administered to inhibit any resulting catecholamine release following histamine administration.
Histamine infusion (10 μgkg^-1 min^-1 at a rate of 10 mlhr^-1 using a perfusion pump type Perfuser securer FT, B. Braun Germany) was started at the one hour time point following oral administration of the test compound or vehicle. Changes in tracheal inflation pressure and blood pressure of drug treated animals were compared with changes from vehicle treated animals and ED50 values determined. One dose of test compound was investigated per animal.

Experiment [4] relates to PAF Induced Bronoconstriction. As to the kind of experiment: PAF Induced Bronoconstriction in the Anaesthetised Guinea Pig. The format is in vivo, guinea pig (Dunkin-Hartley). The note with it: Cavia porcellus, po, 1 h; p.o.; PAF 100 ngkg^-1 i.v. bolus one hour after dosing; read-out: ED50 (PAF induced bronchoconstriction). As for the experimental part:
PAF Induced Bronoconstriction in the Anaesthetised Guinea Pig
as §1, with “or vehicle,” for “or vehicle by oral gavage,”, “(Harvard, UK)” for “(Harvard, UK).”, “tidal” for “tidal volume”
A jugular vein was cannulated for the administration of a bolus dose of propranolol and for the later administration of bolus PAF. A carotid artery was cannulated for the measurement of arterial blood pressure via a physiological pressure transducer (type P23XL, Spectramed USA). Blood pressure and tracheal inflation pressure were recorded on a thermal array chart recorder (type TA4000, Gould Electronics UK).
Propranolol (1 mgkg^-1 i.v. & 3 mgkg^-1 s.c. Sigma Chemical Co. UK) was administered 10 minutes before PAF in order to prevent the bronchodilatory activity of catecholamines which may be released in response to PAF administration. PAF (100 ngkg^-1 i.v. bolus) was administered at the one hour time point following oral administration of the test compound or vehicle.
Changes in tracheal inflation pressure and blood pressure of drug treated animals were compared with changes from vehicle treated animals and percentage inhibition determined. One dose of test compound was investigated per animal.

T1 sequence (P35367 whole entry): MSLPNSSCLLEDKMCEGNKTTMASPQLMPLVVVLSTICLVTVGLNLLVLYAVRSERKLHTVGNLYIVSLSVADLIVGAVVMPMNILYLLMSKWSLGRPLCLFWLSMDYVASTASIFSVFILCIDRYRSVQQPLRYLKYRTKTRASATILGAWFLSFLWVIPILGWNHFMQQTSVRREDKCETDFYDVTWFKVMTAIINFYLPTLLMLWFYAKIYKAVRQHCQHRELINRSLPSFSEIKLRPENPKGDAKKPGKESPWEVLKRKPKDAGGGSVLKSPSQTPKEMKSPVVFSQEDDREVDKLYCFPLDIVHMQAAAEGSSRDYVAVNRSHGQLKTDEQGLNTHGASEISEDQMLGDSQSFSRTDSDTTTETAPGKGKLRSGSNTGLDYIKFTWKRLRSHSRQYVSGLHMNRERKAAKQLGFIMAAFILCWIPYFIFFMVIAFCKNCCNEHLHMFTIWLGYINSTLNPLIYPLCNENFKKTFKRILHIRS

By IC50 is commonly meant the concentration at which inhibition is half-maximal. As usually defined, the ED50 is the dose at which the effect has come halfway, by size or by number of responders. For `Cc1ccc(/C(=C\CN2CCCC2)c2cccc(/C=C/CN(C)C(=O)c3ccc(Cn4c(C)nc5cnccc54)cc3)n2)cc1` [Example 3, N-Methyl-4-(1H-2-methylimidazo[4,5-c]pyridin-1-ylmethyl)-N-{3-[6-(3-pyrrolidin-1-yl-1-{4-tolyl}-prop-1E-enyl)-pyridin-2-yl]-prop-2E-enyl}-benzamide], the activity at 1 µM in experiment [1] was 19%. Also, the IC50 in experiment [2] is 1480 nM. For the same molecule, the results for the ED50 in experiment [3] and in experiment [4] were 0.4 mg/kg and 5.8 mg/kg, respectively.
Taken in the same sequence, the figures for `Cc1ccc(/C(=C\CN2CCCC2)c2cccc(/C=C/CN(C(=O)c3ccc(Cn4c(C)nc5cnccc54)cc3)C3CCCCC3)n2)cc1` [Example 4, N-Cyclohexyl-4-(1H-2-methylimidazo[4,5-c]pyridin-1-ylmethyl)-N-{3-[6-(3-pyrrolidin-1-yl-1-{4-tolyl}-prop-1E-enyl)-pyridin-2-yl]-prop-2E-enyl}-benzamide] were 42%, 167 nM, 0.85 mg/kg and 1.55 mg/kg.
Regarding `CCN(C/C=C/c1cccc(/C(=C/CN2CCCC2)c2ccc(C)cc2)n1)C(=O)c1ccc(Cn2c(C)nc3cnccc32)cc1` [Example 13, N-Ethyl-4-(1H-2-methylimidazo[4,5-c]pyridin-1-ylmethyl)-N-{3-[6-(3-pyrrolidin-1-yl1-{4-tolyl}-prop-1E-enyl)-pyridin-2-yl]-prop-2E-enyl}-benzamide], in experiment [1], the activity at 1 µM turned out to be 30%. Further, in experiment [2], the IC50 was found to be 238 nM. Further, the ED50 in experiment [3] came out at 1 mg/kg; in experiment [4], 2.55 mg/kg.
As for `CCCN(C/C=C/c1cccc(/C(=C/CN2CCCC2)c2ccc(C)cc2)n1)C(=O)c1ccc(Cn2c(C)nc3cnccc32)cc1` [Example 16, N-Propyl-4-(1H-2-methylimidazo[4,5-c]pyridin-1-ylmethyl)-N-{3-[6-(3-pyrrolidin-1-yl-1-{4-tolyl}-prop-1E-enyl)-pyridin-2-yl]-prop-2E-enyl}-benzamide], the activity at 1 µM in experiment [1] turned out to be 30%. This molecule also showed a 50% inhibitory concentration (IC50) in experiment [2] of 130 nM. The “% inhibition (histamine induced bronchoconstriction)” value in experiment [3] (10 mg/kg, histamine infusion one hour after dosing) amounted to 46%. Also, the ED50 in experiment [4] stood at 1.55 mg/kg.
